Results taken from PMC7015555, “Transthyretin-Binding Activity of Complex Mixtures Representing the Composition of Thyroid-Hormone Disrupting Contaminants in House Dust and Human Serum” (Environmental Health Perspectives, 2020).
Where two headings read alike, the source gives them in different places.

Key:
[1] = design: method as in Jahnke et al. 2004; details: rodents; ref Jahnke et al. 2004; cited from earlier work
TBG = details: ref Salvatore et al. 2016; read-out: Kd(TBG) for T4; cited from earlier work
[2] = design: method as in Jahnke et al. 2004; details: humans; ref Jahnke et al. 2004; cited from earlier work
TTR [3] = details: ref Hamers et al. 2008; Weiss et al. 2009; read-out: IC20 in the radioligand binding assay; cited from earlier work
TTR [4] = molecular target: T1, TTR (Homo sapiens, UniProt P02766); test: FITC-T4 TTR competitive binding assay; details: pH 8
TTR [5] = molecular target: T1, TTR; test: Saturation experiment for the FITC-T4-TTR complex; type: binding; details: 30 nM TTR, FITC-T4 0 to 1,000 nM, no inhibitor
Description: Competitive TTR-binding assays were performed by incubating human TTR ( 30nM ) with 110nM of FITC- T4 in the presence of test compounds, reference compound T4 , or carrier solvent control (1% DMSO). For each incubation with TTR, a parallel incubation was performed without TTR to correct for background fluorescence of the unbound FITC- T4 . In the competitive binding experiments, these control incubations were also used to check for possible quenching of FITC- T4 fluorescence by the test compounds and for autofluorescence of the test compounds themselves, neither of which was observed. […]
The Kd value for the FITC-T4-TTR complex was determined in a saturation binding experiment with various concentrations of FITC-T4 (ranging from LT = 0 to LT = 1E-6 M) in the absence or the presence of a fixed concentration of TTR (PT = 3E-8 M).
Using the least-squares method, a non-linear regression fit was performed on the corrected fluorescence Fc as a function of LT, yielding parameter estimates p*(q-1)=0.644 (AFU/nM) and […]
S1.4 Derivation of Ki from the ICx determined in the bioassay
The inhibitor-specific ICx value determined in the bioassay is defined as the total inhibitor concentration [IT] at which the concentration of ligand-protein complex [PLx] is (100-x)% of the concentration of ligand-protein complex in the absence of inhibitor [PL0], i.e. […]

SMILES | T4 half-life time [1] [h] | Kd (TBG) [nM] | T4 half-life time [2] [h] | IC20 (TTR [3]) [nM] | IC20 (TTR [4]) [nM] | Kd (TTR [5]) [nM]
NC(Cc1cc(I)c(Oc2cc(I)c(O)c(I)c2)c(I)c1)C(=O)O (stereo not drawn) [Thyroxine ( T4 ), thyroxine] | 12 to 24 | 0.1 | 120 to 220 | ~30 | 21 | –
O=C1OC2(c3ccc(O)cc3Oc3cc(O)ccc32)c2ccc(NC(=S)NC(Cc3cc(I)c(Oc4cc(I)c(O)c(I)c4)c(I)c3)C(=O)O)cc21 (stereo not drawn) [FITC- T4] | – | – | – | – | – | 140
